Paper PMC5685716, “Oral 4-(N)-stearoyl gemcitabine nanoparticles inhibit tumor growth in mouse models” (Oncotarget, 2017)
In brackets after ≈: the same amount, converted by molar mass. Several values for one entry are separate records, joined by “and”; a condition that tells them apart may be missing. Identical values can stand only once. Counter-ions that a name gives are not always drawn. Like-named read-outs stand apart in the source and are kept apart here.

Experiments:
TC-1 tumor cells = tested on: TC-1 tumor cells; design: method as in PMID 23570983; conditions: 3 × 10^3 cells, 48 h of incubation; cited from earlier work
HT-29 tumor cells = tested on: HT-29 tumor cells; design: method as in PMID 17352232; conditions: peritumoral injection, GemC18 in a Tween 80 solution; cited from earlier work
[1] = design: method as in PMID 19860433, PMID 26806350; conditions: cited from earlier work
TC-1 tumors [2] = tested on: TC-1 tumors; design: method as in PMID 21371545, PMID 22471294; conditions: GemC18 dissolved in a Tween 20 solution; cited from earlier work
LLC tumors = test: Antitumor activity in mice with LLC lung tumors; type: in vivo, C57BL/6J mice; conditions: p.o. once in every two days, GemC18 250 μg/mouse, GemHCl 141.5 μg/mouse (molar equivalent)
Method: LLC tumors were established in female C57BL/6J mice (6-8 week) from the Beijing Vital River Laboratory Animal Technology Co., Ltd. (Beijing, China). Mice were s.c. injected with LLC cells (5 × 10^5) in their back on day 0. On day 11, mice were randomized into groups (n = 8) and were treated by oral gavage with GemC18-SLNs, GemC18-free SLNs, GemC18 alone in a Tween 20 solution, GemHCl (molar equivalent of GemC18), all in a mannitol solution (5%, w/v). Control mice were orally gavaged with a mannitol solution (5%). Mice were treated once in every two days for 3 weeks. The dose of GemC18 was 250 μg/mouse, 141.5 μg/mouse for GemHCl (i.e. molar equivalent to 250 μg of GemC18). GemC18 was dissolved into 1% (v/v) Tween 20 in a 5% (w/v) mannitol solution to a proper concentration. Mouse health was monitored daily, and weight recorded. Tumor size was measured every other day. […] Microscopic images taken at 200 x magnification were analyzed using an Image-Pro Plus software (Media Cybernetics, Inc., Shanghai, China) to determine the percent of cells that are Ki67 positive, the microvessel density (MVD) in tumor tissues, and the optical density of the anti-caspase 3 staining.

B16F10 tumors = tested on: B16F10 tumors; design: method as in PMID 21371545, PMID 22471294; conditions: GemC18 dissolved in a Tween 20 solution; cited from earlier work
LLC cells = tested on: LLC cells; design: method as in earlier work; conditions: 3 × 10^3 cells, 48 h incubation; cited from earlier work
[3] = design: method as in PMID 19860433, PMID 17090088; conditions: oral, animal (rodent) models; cited from earlier work
[4] = design: method as in PMID 19860433; conditions: mouse model, molar equivalent dose, cited from earlier work
leukemia = conditions: oral, rat leukemia model; cited from earlier work
[5] = design: method as in PMID 18473859, PMID 18474674; conditions: in water; cited from earlier work
TC-1 tumors [6] = test: Antitumor activity in mice with pre-established TC-1 tumors; type: in vivo, C57BL/6 mice; conditions: p.o. once daily, GemC18 150 μg/mouse, gemcitabine HCl 85 μg/mouse (molar equivalent)
From the text: When TC-1 tumor cells were used, female C57BL/6 mice (18-20 g, 6-8 weeks, n = 5) were subcutaneously (s.c) injected with TC-1 cells (5 × 10^5 cells/mouse) in the right flank on day 0. Mouse hair was carefully trimmed at the injection site one day prior to the injection. Treatment with GemC18-SLNs, GemC18-in-vegetable oil (GemC18-in-oil), GemC18-free SLNs, all in a mannitol solution (5%, w/v), was started on day 11, and mice were orally gavaged daily until the endpoint (i.e. death, tumor size reaching 15 mm, tumor ulceration, body weight loss of more than 20%, or other signs of severe distress and discomfort). As controls, mice were orally gavaged with a mannitol solution (5%) or i.v. injected with the GemC18-SLNs, twice a week until the endpoint. The dose of GemC18 was 250 μg per mouse per dose for the oral route, 500 μg per mouse per dose for i.v. route. Tumor size was measured 2-3 times a week, and tumor volume was calculated as: volume (mm^3) = (length x width^2)/2. Mouse survival time was also recorded. In another study, TC-1 tumor-bearing female C57BL/6 mice were orally gavaged with GemC18-SLNs, GemC18-in-oil, vegetable oil alone (oil), or gemcitabine HCl (GemHCl, as a control), once daily. The dose of GemC18 was 150 μg per mouse per dose, and dose of GemHCl was 85 μg per mouse per dose (i.e. molar equivalent to the dose of GemC18).

[7] = design: method as in PMID 18519780; conditions: human subjects, patients with advanced or metastatic cancer, estimated; cited from earlier work

| SMILES | IC50 (TC-1 tumor cells) | solubility in water [1] | LLC tumor growth (LLC tumors) | IC50 (LLC cells) | antitumor activity vs molar equivalent dose of gemcitabine [3] | further results |
| --- | --- | --- | --- | --- | --- | --- |
| CCCCCCCCCCCCCCCCCC(=O)Nc1ccn([C@@H]2OC(CO)C(O)C2(F)F)c(=O)n1 (stereo partly shown) [GemC18, 4-(N)-stearoyl gemcitabine] | 18.5 ± 1.7 nM | 1.38 ± 1.60 µg/mL (≈ 2.61 µM) | also inhibited LLC tumor growth, but they were significantly less effective than oral GemC18-SLNs | 130 ± 31.1 nM |  | tumor growth (HT-29 tumor cells): did not significantly affect the tumor growth; antitumor activity (TC-1 tumors [2]): did not show any significant antitumor activity; antitumor activity (B16F10 tumors): did not show any significant antitumor activity |
| CCCC(CCC)C(=O)Nc1ccn([C@@H]2O[C@H](CO)[C@@H](O)C2(F)F)c(=O)n1 [LY2334737] |  | > 2000 µg/mL |  |  | stronger antitumor activity | systemic exposure (AUC) vs oral gemcitabine ([4]; listed as LY2334734): higher systemic exposure of gemcitabine than oral free gemcitabine; systemic exposure (AUC) vs oral gemcitabine [4]: significantly higher |
| CC(C)=CCC/C(C)=C/CC/C(C)=C/CC/C=C(\C)CC/C=C(\C)CCC(=O)Nc1ccn([C@@H]2O[C@H](CO)[C@@H](O)C2(F)F)c(=O)n1 [SQdFdC] |  |  |  |  | stronger antitumor activity | antitumor activity (leukemia): potent antitumor activity; size of self-assembled nanoparticles [5]: 100-300 nm |
| Nc1ccn([C@@H]2O[C@H](CO)[C@@H](O)C2(F)F)c(=O)n1 [gemcitabine HCl] |  |  | also inhibited LLC tumor growth, but they were significantly less effective than oral GemC18-SLNs | 23.4 ± 6.7 nM |  | TC-1 tumor growth (TC-1 tumors [6]): significantly less effective than the GemC18-SLNs |
| Nc1ccn([C@@H]2O[C@H](CO)[C@@H](O)C2(F)F)c(=O)n1 [gemcitabine, 2′,2′-difluorodeoxycytidine] | 10.6 ± 1.1 nM |  |  |  |  | oral bioavailability [7]: 10% and ~ 10% |
